In patent US10221163B2 (priority 2015, dated 2019):
Where two headings read alike, the source gives them in different places.

Columns and labels:
[1] = tested on: Pseudomonas aeruginosa efflux− (MB9799), IMP-1; format: cell-based; conditions: C, D serine β-lactamase inhibitor closely related to relebactam; for P. aeruginosa expressing IMP-1, efflux − (MB9799) MITC95: concentration restoring susceptibility to imipenem at 2 μg/mL in the presence of a class A; for Concentration of metallo-β-lactamase inhibitor which restores susceptibility of efflux − (MB9799) strain to imipenem: imipenem at 2 μg/mL, in the presence of a class A
Summary of the method: (§1)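 Microbroth MIC tests in PAO1-background strains with fixed imipenem and/or ceftazidime, usually at the CLSI breakpoint, plus fixed class A/C β-lactamase inhibitor against AmpC. MBL inhibitor titrated; concentration restoring susceptibility recorded and compared as fold difference between efflux+ MB9798 and efflux− MB9799.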

NDM-1 = NDM-1 (Klebsiella pneumoniae, UniProt C7C422); assay: biochemical; format: biochemical; conditions: fluorescence assay, CCF2-FA substrate, 1 pM enzyme, 2 hours at 25° C.; read-out: NDM-1 IC50
Chain of NDM-1 (C7C422 whole entry, looked up, species assumed): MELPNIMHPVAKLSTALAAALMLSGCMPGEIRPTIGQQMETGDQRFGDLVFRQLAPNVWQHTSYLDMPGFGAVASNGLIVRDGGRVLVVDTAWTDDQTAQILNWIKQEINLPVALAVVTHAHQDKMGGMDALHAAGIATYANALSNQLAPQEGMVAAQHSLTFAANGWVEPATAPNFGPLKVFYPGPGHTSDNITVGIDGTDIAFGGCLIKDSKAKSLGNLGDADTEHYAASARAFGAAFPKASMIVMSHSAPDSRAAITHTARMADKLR
Summary of the method: (§2)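 Fluorescence assay, CCF2-FA substrate (cephalosporin core linking 7-hydroxycoumarin to fluorescein); inhibitor + MBL + substrate, 2 h, 25° C. IC50 by 4-parameter fit, semi-log plot.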

IMP-1 = IMP-1 (Serratia marcescens, UniProt P52699); assay: biochemical; format: biochemical; conditions: fluorescence assay, CCF2-FA substrate, 2 pM enzyme, 2 hours at 25° C.; read-out: IMP-1 IC50
Chain of IMP-1 (P52699 whole entry, looked up, species assumed): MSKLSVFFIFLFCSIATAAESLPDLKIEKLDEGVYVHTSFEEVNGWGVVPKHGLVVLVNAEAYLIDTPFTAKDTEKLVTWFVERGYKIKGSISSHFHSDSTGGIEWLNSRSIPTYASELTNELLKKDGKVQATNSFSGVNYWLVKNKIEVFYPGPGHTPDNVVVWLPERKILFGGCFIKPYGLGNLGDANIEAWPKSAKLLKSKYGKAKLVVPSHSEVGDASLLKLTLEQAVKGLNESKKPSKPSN
Summary of the method: as §2

[2] = tested on: Pseudomonas aeruginosa MB9798 vs MB9799
Summary of the method: as §1

[3] = tested on: Escherichia coli expressing NDM-1 (CLB30005, CLB30016); format: cell-based; conditions: with imipenem 1 μg/ml; for Escherichia coli expressing NDM-1 (CLB30016) MITC95: 95% inhibition of bacterial growth; for Escherichia coli MITC95: NDM-1 strain, 95% inhibition of growth
Summary of the method: (§3)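 Clinical isolates (E. coli NDM-1, S. marcescens IMP-1, K. pneumoniae VIM-1) were diluted 1:100 from saline suspension into 1.1×CAMHB and exposed to test compound with imipenem at 1 μg/ml. Plates were incubated at 35° C for 22 hours to 24 hours, and growth was read by absorbance.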

[4] = tested on: Klebsiella pneumoniae expressing VIM-1 (IHMA599644); format: cell-based; conditions: for Klebsiella pneumoniae expressing VIM-1 (IHMA599644) MITC95: with imipenem 1 μg/ml, 95% inhibition of bacterial growth; for Klebsiella pneumoniae MITC95: VIM-1 strain IHMA599644, with imipenem 1 μg/ml, 95% inhibition of growth
Summary of the method: as §3

[5] = tested on: Serratia marcescens expressing IMP-1 (CL5741); format: cell-based; conditions: for Serratia marcescens expressing IMP-1 (CL5741) MITC95: with imipenem 1 μg/ml, 95% inhibition of bacterial growth; for Serratia marcescens MITC95: IMP-1 strain CL5741, with imipenem 1 μg/ml, 95% inhibition of growth
Summary of the method: as §3

VIM-1 = VIM-1 (Pseudomonas aeruginosa (strain ATCC 15692 / DSM 22644 / CIP 104116 / JCM 14847 / LMG 12228 / 1C / PRS 101 / PAO1), UniProt A0A0F7KYQ8); assay: biochemical; conditions: CCF2-FA substrate, 30 pM enzyme, 2 hours at 25° C.
Summary of the method: as §2

[6] = tested on: Pseudomonas aeruginosa efflux+ (MB9798), IMP-1; format: cell-based; design: Concentration of metallo-β-lactamase inhibitor which restores susceptibility of efflux + (MB9798) strain to imipenem: unit not given here; conditions: C, D serine β-lactamase inhibitor closely related to relebactam; for P. aeruginosa expressing IMP-1, efflux + (MB9798) MITC95: concentration restoring susceptibility to imipenem at 2 μg/mL in the presence of a class A; for Concentration of metallo-β-lactamase inhibitor which restores susceptibility of efflux + (MB9798) strain to imipenem: imipenem at 2 μg/mL, in the presence of a class A
Summary of the method: as §1

[7] = ratio MITC95 PA_9798/MITC95 PA_9799
[8] = fluorescence assay, read-out: VIM-1 IC50
[9] = fold difference between efflux+ (MB9798) and efflux− (MB9799) strains, imipenem at 2 μg/mL

Row | Structure (SMILES) | P. aeruginosa expressing IMP-1, efflux − (MB9799) MITC95 [1] [µM] | IC50 (NDM-1) [pM] | IC50 (IMP-1) [pM] | Efflux ratio [2, 7] | Escherichia coli expressing NDM-1 (CLB30016) MITC95 [3] [µM] | Klebsiella pneumoniae expressing VIM-1 (IHMA599644) MITC95 [4] [µM] | Serratia marcescens expressing IMP-1 (CL5741) MITC95 [5] [µM] | IC50 (VIM-1; VIM-1 IC50, fluorescence assay) [pM] | P. aeruginosa expressing IMP-1, efflux + (MB9798) MITC95 [6] [µM] | Escherichia coli MITC95 [3] [µM] | Klebsiella pneumoniae MITC95 [4] [µM] | Serratia marcescens MITC95 [5] [µM] | IC50 (VIM-1; [8]) [pM] | Concentration of metallo-β-lactamase inhibitor which restores susceptibility of efflux − (MB9799) strain to imipenem [1] | Efflux ratio [2, 9] | Concentration of metallo-β-lactamase inhibitor which restores susceptibility of efflux + (MB9798) strain to imipenem [6]
1 | Nc1nc2c(-c3ccc(S(=O)(=O)NCCC4CNC4)c(S(N)(=O)=O)c3-c3nnn[nH]3)cccc2s1 [Example 30, 4-(2-amino-1,3-benzothiazol-4-yl)-N1-(2-azetidin-3-ylethyl)-3-(1H-tetrazol-5-yl)benzene-1,2-disulfonamide] | 1.563 | 68.6 | 369 | 1.00 | 6.25 | 6.25 | 3.125 | 308 | 1.563 |  |  |  |  |  |  | 
2 | CNc1nc2c(-c3ccc(S(=O)(=O)N[C@@H]4CCNC4)c(S(N)(=O)=O)c3-c3nn[nH]n3)cccc2[nH]1 [Example 280, (R)-4-(2-(methylamino)-1H-benzo[d]imidazol-4-yl)-N1-(pyrrolidin-3-yl)-3-(2H-tetrazol-5-yl)benzene-1,2-disulfonamide] | 0.7813 | 40.8 | 610 | 0.50 |  |  |  |  | 0.3906 | 0.7813 | 1.563 | 0.7813 | 158 |  |  | 
3 | Nc1ccc(-c2ccc(S(=O)(=O)N[C@H]3CNC[C@H]3O)c(S(N)(=O)=O)c2-c2nn[nH]n2)cn1 [Example 410] |  | 322 | 682 |  |  |  |  |  |  | 0.3906 | 1.563 | 0.7813 | 374 | 0.7813 | 1.00 | 0.7813
4 | NCCNS(=O)(=O)c1ccc(-c2cccc3sc(CN)nc23)c(-c2nn[nH]n2)c1S(N)(=O)=O [Example 345, N^1-(2-aminoethyl)-4-(2-(aminomethyl)benzo[d]thiazol-4-yl)-3-(2H -tetrazol-5-yl)benzene-1,2-disulfonamide] | 0.7813 | 193 | 676 | 1.00 |  |  |  |  | 0.7813 | 0.5859 | 0.7813 | 0.7813 | 129 |  |  | 
5 | NS(=O)(=O)c1c(S(=O)(=O)N[C@@H]2CCNC2)ccc(-c2cccnc2N2CCNCC2)c1-c1nn[nH]n1 [Example 220, (R)-4-(2-(piperazin-1-yl)pyridin-3-yl)-N1-(pyrrolidin-3-yl)-3-(2H-tetrazol-5-yl)benzene-1,2-disulfonamide] | 1.563 | 1580 | 35800 | 4.00 | 1.563 | 1.563 | 3.125 |  | 6.25 |  |  |  | 442 |  |  | 
6 | Nc1nc2c(-c3ccc(S(=O)(=O)NCC4COCCN4)c(S(N)(=O)=O)c3-c3nn[nH]n3)cccc2[nH]1 (stereo not drawn) [Example 206, 4-(2-amino-1H-benzo[d]imidazol-4-yl)-N1-(morpholin-3-ylmethyl)-3-(2H-tetrazol-5-yl)benzene-1,2-disulfonamide] | 1.563 | 72.9 | 498 | 2.00 | 0.3906 | 1.563 | 1.563 | 211 | 3.125 |  |  |  |  |  |  | 
7 | C[C@H](CN)NS(=O)(=O)c1ccc(-c2ccnc(N)c2)c(-c2nn[nH]n2)c1S(N)(=O)=O [Example 317, (R)—N1-(1-aminopropan-2-yl)-4-(2-aminopyridin-4-yl)-3-(2H -tetrazol-5-yl) benzene-1,2-disulfonamide] | 3.125 | 170 | 495 | 0.50 |  |  |  |  | 1.563 | 0.7813 | 3.125 | 1.563 | 133 |  |  | 
8 | Nc1nc2c(-c3ccc(S(N)(=O)=O)c(S(N)(=O)=O)c3-c3nn[nH]n3)cccc2o1 [Example 4, 4-(2-aminobenzo[d]oxazol-4-yl)-3-(2H-tetrazol-5-yl)benzene-1,2-disulfonamide] | 1.563 | 136 | 354 | 1.00 | 3.125 | 3.125 | 1.563 |  | 1.563 |  |  |  | 237 |  |  | 
9 | NS(=O)(=O)c1c(S(=O)(=O)N[C@@H]2CNC[C@@H]2O)ccc(-c2cccc3[nH]nnc23)c1-c1nn[nH]n1 [Example 412] |  | 108 | 2570 |  |  |  |  |  |  | 3.125 | 6.25 | 3.125 | 321 | 3.125 | 0.50 | 1.563
10 | NC[C@H](CO)NS(=O)(=O)c1ccc(-c2cccc(N)n2)c(-c2nn[nH]n2)c1S(N)(=O)=O [Example 364, (R)—N^1-(1-amino-3-hydroxypropan-2-yl)-4-(6-aminopyridin-2-yl)-3-(2H-tetrazol-5-yl)benzene-1,2-disulfonamide] | 1.563 | 3250 | 14600 | 2.00 |  |  |  |  | 3.125 | 3.125 | 6.25 | 3.125 | 3240 |  |  | 
11 | NCCNS(=O)(=O)c1ccc(-c2cccc3oc(C(=O)O)nc23)c(-c2nn[nH]n2)c1S(N)(=O)=O [Example 13, 4-(4-(N-(2-aminoethyl)sulfamoyl)-3-sulfamoyl-2-(2H-tetrazol-5-yl)phenyl)benzo[d]oxazole-2-carboxylic acid] | 6.25 | 75.7 | 2140 | 2.00 | 12.5 | 25 | 12.5 |  | 12.5 |  |  |  | 412 |  |  | 
12 | NCc1nc(-c2cccc(-c3ccc(S(=O)(=O)N[C@H]4CNC[C@H]4N)c(S(N)(=O)=O)c3-c3nn[nH]n3)c2)c[nH]1 [Example 462] |  | 95.4 | 1290 |  |  |  |  | 227 |  | 1.563 | 1.563 | 1.563 |  | 0.7813 | 2.00 | 1.563
